Experimental data taken from US20240300975A1, “DIMETHYL-SUBSTITUTED THIAZOLOLACTAM COMPOUND AND USE THEREOF” (D3 Bio (Wuxi) Co., Ltd., priority 2021, published 2024).

What was measured:
HT29 tumor cells = assay: In vitro cell proliferation inhibition (CellTiterGlo); assay type: cell-based; settings: Homo sapiens, HT-29
Procedure: The ability of compounds to inhibit the proliferation of HT29 tumor cells was measured.
The assay compound was dissolved in 100% DMSO to prepare 10 mM stock solution.
• a) UV light of a biological safety cabin was turned on, and 30 minutes were counted down; • b) In a 37° C. water bath, RPMI1640 medium and trypsin were preheated; • c) After completion of the UV irradiation, the biological safety cabin was opened. The preheated medium, trypsin and phosphate buffered saline (PBS), etc. were wiped with alcohol and placed in the biological safety cabin; • d) HT29 cells were removed from the incubator, and the old medium was removed in biological safety cabin. 10 ml of PBS was added. […] The culture vessel was shaken horizontally so that the trypsin evenly covered the cells at the bottom, and placed in an incubator for 2 minutes; • f) Cell digestion was stopped with complete medium, and the cell suspension was pipetted to homogeneity and counted; • g) According to the result of cell counting, the density of cell suspension was adjusted to 1500 cells per well, and the cell suspension was seeded at 50 μl per well; • h) The stock solution of compounds was serially diluted in DMSO solution, and compounds were added to cell plate using Tecan; • i) The compound-added cell plate and CellTiterGlo were equilibrated at room temperature, and 25 microliters of CellTiterGlo was then added to each well. […]

ERK2 = ERK2 (Homo sapiens (Human), UniProt P28482); assay: In vitro ERK2 kinase activity assay (33P-ATP, filter-binding); assay type: biochemical
Procedure: The ability of compounds to inhibit ERK1 and ERK2 kinase activity was measured.
20 mM Hepes (pH 7.5), 10 mM MgCl2, 1 mM ethylenebis(oxyethylenenitrilo)tetraacetic acid (EGTA), 0.02% Brij35, 0.02 mg/mL bovine serum albumin (BSA), 0.1 mM Na3VO4, 2 mM dithiothreitol (DTT), 1% DMSO.
The assay compound was dissolved in 100% DMSO to prepare a stock solution of specific concentration. The compound was serially diluted in DMSO solution using Integra Viaflo Assist smart pipette.
• a) The substrate MBP was prepared in freshly prepared reaction buffer; • b) ERK1 (or ERK2) kinase was added to the above-mentioned MBP solution and mixed gently; • c) The compound dissolved in 100% DMSO was added to the kinase reaction system using ultrasound technology (Echo550; nanoliter range), and the mixture was incubated at room temperature for 20 minutes; • d)^33P-ATP (specific concentration of […]) was added to the reaction system, and the reaction was started at this time; • e) The mixture was incubated at room temperature for 2 hours; • f) The amount of radioactivity was detected by filter-binding method; • g) ERK1 (or ERK2) kinase activity was calculated as the ratio of the remaining kinase activity in the assay sample to the kinase activity of the control group (treated by DMSO).
Curve was fitted using Prism (GraphPad software) and IC50 values were calculated.

Chain of ERK2 (P28482 whole entry): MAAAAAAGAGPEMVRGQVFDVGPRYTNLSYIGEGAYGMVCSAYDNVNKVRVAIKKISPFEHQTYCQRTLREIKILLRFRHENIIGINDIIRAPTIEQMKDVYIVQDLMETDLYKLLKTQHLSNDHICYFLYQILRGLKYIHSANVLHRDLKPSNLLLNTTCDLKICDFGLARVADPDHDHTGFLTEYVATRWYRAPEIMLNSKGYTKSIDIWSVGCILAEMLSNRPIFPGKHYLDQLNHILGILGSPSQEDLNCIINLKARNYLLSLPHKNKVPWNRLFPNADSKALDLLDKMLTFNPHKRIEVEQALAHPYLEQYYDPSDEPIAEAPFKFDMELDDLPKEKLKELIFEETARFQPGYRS

| IC50 (HT29 tumor cells) | IC50 (ERK2) | SMILES |
| --- | --- | --- |
| 46000 pM | 470 pM | Cc1cccc(CN2C(=O)c3nc(-c4nc(NC5CCOCC5)ncc4C)sc3C2(C)C)n1 [WX002] |
|  | 930 pM | Cc1cccc(CN2C(=O)c3nc(-c4ccnc(Nc5ccnn5C)n4)sc3C2(C)C)n1 [WX003] |
|  | 340 pM | CCc1cnc(Nc2ccnn2C)nc1-c1nc2c(s1)C(C)(C)N(Cc1cccc(C)n1)C2=O [WX004] |
